Consider two compounds from patent US20170216219A1, “THERAPEUTIC NANOPARTICLES FOR ACCUMULATION IN THE BRAIN” (UNIVERSITY OF GEORGIA RESEARCH FOUNDATION, INC., priority 2014, published 2017).

Holding throughout (type): cell-based, Human
The subject of data set [1] is LPS stimulated NSCs. Put plainly: Anti-inflammatory properties in LPS stimulated NSCs (cytokine ELISA). The following applies: LPS 100 ng/mL 36 h, 1 μM. From the text: Immunosuppressant corticoid based rugs such as prednisone can exert biphasic effects on neuronal mitochondrial dynamics. A low level of prednisone and chronic high levels can attenuate various aspects of mitochondrial function. […] Inflammatory cytokines like TNF-α and IL-6 are closely linked to TBI and these cytokines have a negative effect on damaged tissue. Therefore limiting inflammatory cytokine activity is of major benefit in reducing TBI tissue damage. We used lipopolysaccharide (LPS) to stimulate TNF-α and IL-6 production in NSCs to understand the anti-inflammatory effects of prednisone-NPs and CoQ10-NPs in an in vitro model (FIG. 6C). […] The T and NT NPs containing prednisone reduced the levels of IL-6 in the LPS stimulated NSCs. The addition of T or NT-CoQ10-NPs to prednisone NPs increased the efficiency of IL-6 reduction. […] IL-10 is primarily an anti-inflammatory cytokine with potent inhibitory effects on several pro-inflammatory mediators. […] IL-12 has immune-inflammatory responses in the brain; however the consequences of local production of IL-12 on spontaneous immune responses are unknown. […] The exact mechanism why only mitochondria targeted therapy produces IL-12 from the NSCs warrants further investigation.
Human induced pluripotent stem cell-derived neural stem cells (HIP™ hNSC BC1, GlobalStem®, Rockville, Md.) used for the in vitro portion of this study. NSCs were maintained on matrigel-coated tissue culture dishes in neural stem cell media composed of neural basal medium, 2% B-27 supplement, 1% non-essential amino acids, 2 mM L-alanine/L-glutamine, 1% penicillin/streptomycin, and 20 ng/mL bFGF. The media was changed every other day. When NSCs reached confluence (approximately every 4 to 5 days), cells were enzymatically passaged using Accutase and removed from the dish using a cell scrapper. Cells were split at a 1:4 ratio. […]
NSCs were plated on each well of a 12-well plate at a density of […] per well and allowed to grow overnight (NSC basal media in 200 μL). […] The absorbance was recorded at 450 nm using a BioTek Synergy HT well plate reader.
In general terms: ELISA stands for enzyme-linked immunosorbent assay.

Data set [2] relates to NSCs. Kind of data set: Cytotoxicity by MTT assay against NSCs. The following applies: concentrations used in the cytokine studies. The method, then:
Human induced pluripotent stem cell-derived neural stem cells (HIP™ hNSC BC1, GlobalStem®, Rockville, Md.) used for the in vitro portion of this study. NSCs were maintained on matrigel-coated tissue culture dishes in neural stem cell media composed of neural basal medium, 2% B-27 supplement, 1% non-essential amino acids, 2 mM L-alanine/L-glutamine, 1% penicillin/streptomycin, and 20 ng/mL bFGF. The media was changed every other day. When NSCs reached confluence (approximately every 4 to 5 days), cells were enzymatically passaged using Accutase and removed from the dish using a cell scrapper. Cells were split at a 1:4 ratio. To prepare NSCs for MTT and ROS Reduction assays, NSCs were plated in matrigel-coated 96-well dishes at a ratio of 40,000 cells per well in neural stem cell media.
The cytotoxic behavior of all the NPs was evaluated by using the MTT assay against NSCs. Cells (40,000 cells/well) were seeded on a 96-well plate in 100 μL of NSC basal complete medium and incubated for 24 h. The cells were treated with NPs at varying concentrations (with respect to prednisone and CoQ10) and incubated at 37° C. […] The medium was removed, the cells were lysed with 100 μL of DMSO, and the absorbance of the purple formazan was recorded at 550 nm using a Bio-Tek Synergy HT microplate reader. Each well was performed in triplicate and a background reading was recorded at 800 nm.
(In general: Formazan colour is commonly taken as a measure of viable cells.)

Data set [3] has as its system NSCs. Put plainly: Antioxidative properties by Seahorse analyzer (OCR) in H2O2 treated NSCs. The following applies: H2O2 10 μM, 1 μM with respect to CoQ10. The source says: Oxidative stress induced by the production of ROS including free radicals and peroxides is one of the major mechanisms, which leads to neuronal destruction and is closely related to apoptosis and necrosis in these cells during TBI. Mitochondria are well known to be a major source of ROS production. CoQ10 is endogenously synthesized in mammalian mitochondria, acts as both antioxidant and pro-oxidant, and is involved in shuttling electrons from complexes I or II and a number of other electron donors, including electron transfer factor, which moves electrons from fatty acid beta oxidation. CoQ10 is found in all cell and organelle membranes, where it can participate in redox shuttling. However, defects in CoQ10 biosynthesis can be found during TBI. […]
T-CoQ10-NPs, NT-CoQ10-NPs, and free CoQ10 were tested for their ability to reduce oxidative stress in NSCs. […] The cells were monitored for changes in oxygen consumption rate (OCR) with respect to time. A basal reading was acquired for 45 min and then H2O2(10 μM) was injected. The OCR was monitored for 90 min and T-CoQ10-NPs (1 μM with respect to CoQ10), NT-CoQ10-NPs (1 μM with respect to CoQ10), and free CoQ10 (1 μM) were injected. The OCR levels were then further measured for 4.5 h. As a control, cells were also monitored with no treatment or only treatment of H2O2(10 μM).

Molecules are shown by their SMILES.

Turning to `C[C@]12C=CC(=O)C=C1CC[C@@H]1[C@@H]2C(=O)C[C@@]2(C)[C@H]1CC[C@]2(O)C(=O)CO` [prednisone], in data set [1], the IL-10 entry is “elevated” and the “TNF-α secretion induced by LPS” value is “significantly reduced”. Besides, the “cytotoxic effects (MTT)” value in data set [2] is recorded as “did not show any cytotoxic effects”.

`COC1=C(OC)C(=O)C(C/C=C(\C)CC/C=C(\C)CC/C=C(\C)CC/C=C(\C)CC/C=C(\C)CC/C=C(\C)CC/C=C(\C)CC/C=C(\C)CC/C=C(\C)CCC=C(C)C)=C(C)C1=O` [CoQ10, coenzyme Q10]: the IL-10 result in data set [1] was “elevated”. In addition, the “cytotoxic effects (MTT)” value in data set [2] is recorded as “did not show any cytotoxic effects”. The “effect on H2O2 mediated oxidative stress (OCR)” value in data set [3] is given as “less efficiency in oxidative stress reduction”.
